The values that follow come from ChEMBL document CHEMBL1201862, “PubChem BioAssay data set” (2004).

A word on the EC50: it is the concentration at which the effect is half-maximal. The AC50 is the midpoint of the concentration-response curve, whichever way the signal moves. By CC50 is commonly meant the concentration giving 50% cytotoxicity.

In experiment [1] the target is T1, Polyadenylate-binding protein 1 (Homo sapiens, UniProt P11940). Description: MLLE binding blockers, Cy5 peptide tracer – biochemical, fluorescence polarization, Cy5-PAM2 peptide, secondary, miRNA deadenylation inhibitor project, dose response (AID 602260). Type of experiment: functional. The conditions noted are these: read-out: IC50_Mean. In general terms: In fluorescence polarisation assays a small probe gives low polarisation when free and higher when bound to something large.
T1 sequence (P11940 whole entry): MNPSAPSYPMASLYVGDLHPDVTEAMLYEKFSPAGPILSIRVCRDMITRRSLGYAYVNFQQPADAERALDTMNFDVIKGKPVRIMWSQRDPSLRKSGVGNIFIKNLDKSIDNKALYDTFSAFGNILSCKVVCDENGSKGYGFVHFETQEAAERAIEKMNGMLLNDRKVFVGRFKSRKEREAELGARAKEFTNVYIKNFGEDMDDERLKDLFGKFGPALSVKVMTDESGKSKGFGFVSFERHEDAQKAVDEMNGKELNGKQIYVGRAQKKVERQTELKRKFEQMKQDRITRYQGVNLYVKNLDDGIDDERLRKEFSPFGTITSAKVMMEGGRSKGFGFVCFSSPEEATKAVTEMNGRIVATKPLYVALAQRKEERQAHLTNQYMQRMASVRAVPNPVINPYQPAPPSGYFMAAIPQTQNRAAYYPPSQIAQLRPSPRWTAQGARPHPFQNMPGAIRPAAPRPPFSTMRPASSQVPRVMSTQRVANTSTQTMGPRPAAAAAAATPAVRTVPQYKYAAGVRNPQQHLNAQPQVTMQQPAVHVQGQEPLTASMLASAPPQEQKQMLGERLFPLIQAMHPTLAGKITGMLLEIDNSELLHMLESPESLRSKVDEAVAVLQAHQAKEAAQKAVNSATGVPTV

In experiment [2] the target is T1, Polyadenylate-binding protein 1. Description: MLLE domain peptide-binding blockers, IC50 – biochemical, fluorescence polarization, FITC-PAM2 peptide, dose response (AID 602259). The conditions noted are these: read-out: IC50_Mean. Type of experiment: functional.
The target in experiment [3] is Luciferin 4-monooxygenase (Photinus pyralis, UniProt P08659). Description: inhibition of purified Photinus pyralis luciferase – biochemical, luminescence, dose response (AID 1891).
Chain of Luciferin 4-monooxygenase (P08659 whole entry): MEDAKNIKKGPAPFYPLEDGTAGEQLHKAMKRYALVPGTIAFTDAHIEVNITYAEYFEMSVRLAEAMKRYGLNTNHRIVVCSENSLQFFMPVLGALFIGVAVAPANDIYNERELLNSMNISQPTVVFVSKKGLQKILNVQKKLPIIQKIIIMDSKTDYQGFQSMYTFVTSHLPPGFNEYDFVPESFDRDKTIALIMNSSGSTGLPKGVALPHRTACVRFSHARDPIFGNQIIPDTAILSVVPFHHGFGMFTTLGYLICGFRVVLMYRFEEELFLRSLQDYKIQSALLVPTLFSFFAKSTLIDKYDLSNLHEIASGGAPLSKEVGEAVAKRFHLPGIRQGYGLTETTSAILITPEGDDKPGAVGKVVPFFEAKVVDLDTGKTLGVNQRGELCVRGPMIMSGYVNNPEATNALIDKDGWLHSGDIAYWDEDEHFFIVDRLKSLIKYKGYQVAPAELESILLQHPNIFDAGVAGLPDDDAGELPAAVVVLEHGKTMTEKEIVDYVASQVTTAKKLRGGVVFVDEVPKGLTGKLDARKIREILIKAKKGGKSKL
Experiment [4] is described as follows: Luminescence Cell-Based Dose Confirmation HTS to Identify Inhibitors of Platelet Dense Granule Release. [Related pubchem assays: 1663 (Primary HTS), 1678 (Summary of Project)]. The experiment is classed as functional.
Experiment [5] has as its target Paired box protein Pax-8 (Homo sapiens, UniProt Q06710). Put plainly: PAX8 transcriptional activity inhibition in RMG-I – RMG-I cells, luciferase, cherry-pick, dose response (AID 687027).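 Note: luciferase reporter driven by Pax8 target thyroperoxidase promoter measured by SteadyGlo luminescence.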 Type of experiment: functional, cell-based.
For experiment [6], the system named is H9c2. Description: cells. Type of experiment: functional, cell-based. The conditions noted are these: Rattus norvegicus, H9c2, Myocardium.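 Note: confirmatory concentration-response retest of ultra-high-throughput screening hits for modulation of myocardial damage; cell death induced by hydrogen peroxide oxidative stress; compound pretreatment for 60 min then peroxide exposure for 2 h; potency is for protecting the cells against peroxide damage rather than for killing them.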
For experiment [7], the target named is T2, Rac GTPase-activating protein 1 (Homo sapiens, UniProt Q9H0H5).
T2 sequence (Q9H0H5 whole entry): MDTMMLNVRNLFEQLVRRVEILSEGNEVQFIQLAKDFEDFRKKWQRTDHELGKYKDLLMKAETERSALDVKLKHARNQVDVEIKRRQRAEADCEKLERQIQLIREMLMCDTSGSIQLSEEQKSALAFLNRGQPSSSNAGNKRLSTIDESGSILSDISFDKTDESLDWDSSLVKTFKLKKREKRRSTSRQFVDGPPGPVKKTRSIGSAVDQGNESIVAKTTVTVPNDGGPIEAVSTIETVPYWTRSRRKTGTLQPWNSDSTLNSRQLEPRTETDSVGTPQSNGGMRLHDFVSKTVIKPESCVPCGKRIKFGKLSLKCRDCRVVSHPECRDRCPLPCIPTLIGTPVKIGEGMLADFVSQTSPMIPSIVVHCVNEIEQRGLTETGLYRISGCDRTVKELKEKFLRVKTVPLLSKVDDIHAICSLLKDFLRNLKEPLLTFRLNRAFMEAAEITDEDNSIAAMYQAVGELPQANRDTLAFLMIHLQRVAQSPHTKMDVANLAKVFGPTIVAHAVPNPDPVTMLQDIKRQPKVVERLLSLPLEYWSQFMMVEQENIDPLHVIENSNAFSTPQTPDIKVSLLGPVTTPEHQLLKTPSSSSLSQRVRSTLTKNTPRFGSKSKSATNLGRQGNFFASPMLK
Put plainly: blockers of MgcRacGAP-driven Rac1 GTP hydrolysis – biochemical, ADP Hunter fluorescence, primary and confirmatory, confirmation (AID 624330). The experiment is classed as functional.

The nature of experiment [8]: viability of uninfected HEp-2 cells – cell-based, HTS, cytotoxicity control for RSV inhibitor project, dose response (AID 2410). The experiment is classed as functional. To be noted: human respiratory syncytial virus.
Experiment [9] in a line: reduction of Shn3 3'UTR-driven luciferase in osteoblasts – cell-based, Clone20 osteoblasts, firefly luciferase, cherry-picked, dose response (AID 624132).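 Note: firefly luciferase luminescence from reporter carrying the Shn3 3'UTR in osteoblasts.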 The experiment is classed as functional.
The target in experiment [10] is T3, Replicative DNA helicase DnaB (Mycobacterium tuberculosis, UniProt P9WMR3).
T3 sequence (P9WMR3 whole entry): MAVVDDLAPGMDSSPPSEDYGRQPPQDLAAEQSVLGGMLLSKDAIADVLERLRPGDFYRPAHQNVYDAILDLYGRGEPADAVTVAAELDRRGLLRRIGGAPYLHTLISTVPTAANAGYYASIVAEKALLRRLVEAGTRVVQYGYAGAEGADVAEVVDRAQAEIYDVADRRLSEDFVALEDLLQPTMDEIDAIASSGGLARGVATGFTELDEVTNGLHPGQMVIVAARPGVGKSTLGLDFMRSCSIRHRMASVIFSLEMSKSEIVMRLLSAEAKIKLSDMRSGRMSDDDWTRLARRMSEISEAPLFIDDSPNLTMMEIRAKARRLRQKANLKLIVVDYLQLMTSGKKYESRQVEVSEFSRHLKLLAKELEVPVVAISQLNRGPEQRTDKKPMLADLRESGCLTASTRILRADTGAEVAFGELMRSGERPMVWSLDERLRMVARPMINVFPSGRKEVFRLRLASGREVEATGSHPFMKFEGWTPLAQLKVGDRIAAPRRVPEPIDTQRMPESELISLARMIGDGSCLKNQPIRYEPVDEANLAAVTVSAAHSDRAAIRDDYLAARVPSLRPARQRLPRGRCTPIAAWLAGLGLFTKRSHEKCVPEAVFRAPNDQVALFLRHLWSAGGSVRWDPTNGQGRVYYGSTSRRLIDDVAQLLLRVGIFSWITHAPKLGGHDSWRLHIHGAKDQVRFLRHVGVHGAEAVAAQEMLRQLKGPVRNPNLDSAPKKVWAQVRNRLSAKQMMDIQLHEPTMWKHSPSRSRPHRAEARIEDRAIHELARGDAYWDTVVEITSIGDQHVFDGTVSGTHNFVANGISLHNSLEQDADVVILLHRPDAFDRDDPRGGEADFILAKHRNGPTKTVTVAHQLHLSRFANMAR
Put plainly: DnaB intein splicing inhibitors, dose response, biochemical, cell-free fluorescence (AID 449749). Type of experiment: functional.

Experiment [11] addresses T4, Protein RecA (Mycobacterium tuberculosis, UniProt P9WHJ3).
T4 sequence (P9WHJ3 whole entry): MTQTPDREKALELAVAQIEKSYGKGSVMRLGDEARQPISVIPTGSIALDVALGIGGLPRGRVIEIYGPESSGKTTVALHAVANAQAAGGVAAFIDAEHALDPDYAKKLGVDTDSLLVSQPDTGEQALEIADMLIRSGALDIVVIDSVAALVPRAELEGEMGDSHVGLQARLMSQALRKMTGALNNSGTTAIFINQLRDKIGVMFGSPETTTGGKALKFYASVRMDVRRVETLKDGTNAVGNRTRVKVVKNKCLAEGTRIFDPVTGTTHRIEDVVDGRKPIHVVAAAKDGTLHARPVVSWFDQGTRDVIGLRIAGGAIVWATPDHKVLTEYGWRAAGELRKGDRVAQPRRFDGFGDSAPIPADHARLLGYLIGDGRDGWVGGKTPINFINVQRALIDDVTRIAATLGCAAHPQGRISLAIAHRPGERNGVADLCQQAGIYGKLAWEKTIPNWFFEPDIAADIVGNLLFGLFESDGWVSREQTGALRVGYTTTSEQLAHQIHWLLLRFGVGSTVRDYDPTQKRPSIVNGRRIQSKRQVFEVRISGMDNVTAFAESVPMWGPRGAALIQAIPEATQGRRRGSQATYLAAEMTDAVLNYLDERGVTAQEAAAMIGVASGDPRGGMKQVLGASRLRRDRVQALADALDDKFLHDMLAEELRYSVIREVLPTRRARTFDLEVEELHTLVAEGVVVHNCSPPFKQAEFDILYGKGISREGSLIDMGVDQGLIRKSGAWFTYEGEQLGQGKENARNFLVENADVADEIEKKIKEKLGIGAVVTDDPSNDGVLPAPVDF
Put plainly: Fluorescence Cell-Free Homogeneous Dose Retest to Identify Inhibitors of RecA-Intein Splicing Activity. [Related pubchem assays (depositor defined):AID2097, AID2223, AID489010, AID492950]. The experiment is classed as functional.

Experiment [12] deals with Cytochrome P450 2C9 (Homo sapiens, UniProt P11712).
Chain of Cytochrome P450 2C9 (P11712 whole entry): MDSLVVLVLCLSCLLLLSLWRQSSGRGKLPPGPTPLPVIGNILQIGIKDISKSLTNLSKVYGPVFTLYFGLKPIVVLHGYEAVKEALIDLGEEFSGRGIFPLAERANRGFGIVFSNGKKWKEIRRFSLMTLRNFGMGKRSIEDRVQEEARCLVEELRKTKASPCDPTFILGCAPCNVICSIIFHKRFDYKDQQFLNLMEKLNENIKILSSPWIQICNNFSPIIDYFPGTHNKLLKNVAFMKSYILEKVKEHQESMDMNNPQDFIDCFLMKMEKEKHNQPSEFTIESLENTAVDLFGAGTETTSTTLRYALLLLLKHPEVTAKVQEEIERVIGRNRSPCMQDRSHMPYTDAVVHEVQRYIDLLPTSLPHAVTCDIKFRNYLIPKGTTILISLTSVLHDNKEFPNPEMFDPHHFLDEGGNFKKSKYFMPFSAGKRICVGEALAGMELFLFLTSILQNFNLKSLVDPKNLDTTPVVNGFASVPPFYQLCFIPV

Each structure is given as a SMILES string. Calls of active or inactive are those of the source. Some results are limits rather than exact numbers.

Chain of Paired box protein Pax-8 (Q06710 whole entry): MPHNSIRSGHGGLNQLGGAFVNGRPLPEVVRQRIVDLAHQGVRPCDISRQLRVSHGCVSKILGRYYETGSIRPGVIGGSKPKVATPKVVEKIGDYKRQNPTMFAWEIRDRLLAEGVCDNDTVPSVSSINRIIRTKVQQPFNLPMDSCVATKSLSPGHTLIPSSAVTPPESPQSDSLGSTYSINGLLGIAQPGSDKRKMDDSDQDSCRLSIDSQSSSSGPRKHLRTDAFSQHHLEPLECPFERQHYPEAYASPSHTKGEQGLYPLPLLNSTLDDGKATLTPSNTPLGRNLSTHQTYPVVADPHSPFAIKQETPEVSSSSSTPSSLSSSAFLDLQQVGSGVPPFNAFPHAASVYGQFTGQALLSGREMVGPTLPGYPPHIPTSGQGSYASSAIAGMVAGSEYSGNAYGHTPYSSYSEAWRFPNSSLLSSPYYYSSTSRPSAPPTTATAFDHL

Consider `CCN=C(S)NS(=O)(=O)c1ccc(C)cc1`, for which the IC50 in experiment [1] and in experiment [2] was > 66 µM (inactive) each time. `COc1ccccc1NC(=O)C(C)NS(=O)(=O)c1ccccc1` (stereo not drawn): the EC50 in [3] and in experiment [4] was > 112 µM (not active) in each case. Consider `COc1ccc(-c2nc(C[S+]([O-])CC(=O)NC3CCCC(C)C3C)c(C)o2)cc1OC` (stereo not drawn), for which the EC50 in [3] and in [4] was > 112 µM (not active) in each case. Consider `C[C@@H]1CN([C@@H](C)CO)S(=O)(=O)c2ccc(C#Cc3ccccc3F)cc2O[C@H]1CN(C)CC1CCOCC1`, for which the AC50 in experiment [5] is 10.3 µM (active).

For the compound `CCOc1cc(-c2cc(-c3ccc(N)cc3)nc(N)c2C#N)ccc1O`, the values for the IC50 in [6] and in experiment [7] were > 79 µM (inactive) and 131 µM (active), respectively. Consider `CCOc1ccccc1N(C(=O)c1snc(C(N)=O)c1N)C(C(=O)NC1CCCC1)c1cccs1` (stereo not drawn), for which the IC50 in experiment [1] and in experiment [2] was > 66 µM (inactive) throughout.

Turning to `CN(c1ccccc1)S(=O)(=O)c1cccc(NC(=O)c2cncc(Br)c2)c1`, the CC50 in experiment [8] is 12.4 µM (active). Take `Cc1ccc(Cn2nnc3c(O)nc(C4CCN(S(=O)(=O)c5ccccc5F)CC4)nc32)cc1`: the CC50 in [8] was 22.2 µM (active). For `Cc1ncoc1C(=O)Nc1ccc2c(c1)OCCO2`, the EC50 in experiment [3] is 34.3 µM (active); in experiment [4], 5.11 µM (active). The corresponding values for `O=C(CSCc1c(Cl)cccc1Cl)NCc1ccco1` are > 112 µM (not active) and > 112 µM (not active). Regarding `CN(Cc1ccc2c(c1)CCCN2C)C(=O)[C@H]1O[C@@H](n2ccc(=O)[nH]c2=O)[C@H](O)[C@@H]1O`, the IC50 in experiment [1] and in experiment [2] was > 66 µM (inactive) each time.

For `COc1ccc(NC(=O)CN2C(=O)C(c3ccccc3)=NC23CCCCCC3)cc1`, the EC50 in [3] and in experiment [4] was > 112 µM (not active) throughout.

On to `Nc1nnnn1/N=C/c1cccc(Br)c1`, for which the CC50 in experiment [8] was > 50 µM (active). `Cc1cccc(C)c1NC(=O)CN(C)C(=O)c1cc(S(=O)(=O)N(C)C)ccc1N1CCCC1`: the AC50 in experiment [9] was 27.1 µM (active). For `O=C(CCl)Nc1ccccc1C(=O)Nc1ccc2c(c1)OCO2`, the EC50 was > 112 µM (not active) in experiment [3], 27.7 µM (active) in experiment [4] and 13 µM (active) in [11]. For the same compound, the AC50 in [10] was 64.8 µM (active). Take `C[C@@H]1CCCCO[C@H](CN(C)S(=O)(=O)c2ccc(Cl)cc2)[C@@H](C)CN([C@@H](C)CO)C(=O)c2cc(NC(=O)CCC(F)(F)F)ccc2O1`: in experiment [5], the AC50 was 3.2 µM (active). For the compound `CCN(CC)CCCN1C(=O)CSC1c1ccc([N+](=O)[O-])cc1` (stereo not drawn), the IC50 in experiment [1] and in experiment [2] was > 66 µM (inactive) each time. Consider `C[C@H](CO)N1C[C@H](C)[C@H](CN(C)C(=O)NC2CCCCC2)OCCCC[C@H](C)Oc2ccc(NC(=O)Nc3ccc(C(F)(F)F)cc3)cc2C1=O`, for which, in experiment [5], the AC50 is 6.15 µM (active). On to `COc1cccc(OC)c1C(=O)N1CCN(Cc2ccc3c(c2)OCO3)CC1`, for which, in experiment [7], the IC50 is 248 µM (active).

Regarding `O=C1NC(=S)S/C1=C1\Sc2ccccc2N1CCCS(=O)(=O)O`, in experiment [7], the IC50 was 123 µM (active). For the compound `Cc1ccnc(SC2CC(=O)N(c3ccc([N+](=O)[O-])cc3)C2=O)n1` (stereo not drawn), the IC50 in experiment [1] and in experiment [2] was > 66 µM (inactive) each time. As to `CCOC1=C2CN(S(=O)(=O)c3ccc(C)cc3)[C@@H](c3ccccc3)C[C@H]2[C@H]2C(=O)N(c3ccccc3)C(=O)[C@H]2C1`, the IC50 in [1] is > 66 µM (inactive); in experiment [2], 51 µM (inactive). Take `Cn1c(=O)c2c(SCc3c(F)cccc3Cl)nc(CC(C)(C)C)nc2n(C)c1=O`: the CC50 in [8] was 30.1 µM (active). For the compound `O=C1CCC(c2ccc(-n3ccnc3)cc2)=NN1` [IMAZODAN], the figures for the EC50 in [3] and in [4] were > 112 µM (not active) and 1.36 µM (active), respectively. Also, the AC50 in experiment [12] is 31.6 µM (inconclusive).

As to `O=C(Nc1ccc(O)cc1)c1cc2n(n1)C(C(F)(F)F)CC(c1ccco1)N2` (stereo not drawn), in experiment [7], the IC50 is 27.7 µM (active). For `CCOC(=O)NC1(C(F)(F)F)NC(=O)N(Cc2ccco2)C1=O` (stereo not drawn), the EC50 in experiment [3] and in [4] was > 112 µM (not active) in each case. In the case of `Cc1cc(C)n(C(=O)c2ccc(S(=O)(=O)N3CCCC3)cc2)n1`, the EC50 in [3] and in experiment [4] was > 112 µM (not active) in each case. As to `O=C(Cc1nnc(O)c2ccccc12)NCc1ccc(Cl)cc1`, the EC50 in experiment [3] and in experiment [4] was > 112 µM (not active) each time. Besides, the IC50 in experiment [6] is > 79 µM (inactive). Turning to `COc1ccc(NC(=O)CC2Sc3ncnn3C2=O)cc1` (stereo not drawn), the IC50 in [1] and in [2] was > 66 µM (inactive) throughout. Take `COc1ccc(CNC(=O)c2cc(-c3cc(C)cc(C)c3O)[nH]n2)cc1`: in [8], the CC50 was > 50 µM (active). As to `CCO/C(O)=C1/Sc2ccccc2N=C1C`, in experiment [7], the IC50 was 53.5 µM (active).
